Measurements as given in paper PMC10655120, “Highly efficient synergistic activity of an α-L-arabinofuranosidase for degradation of arabinoxylan in barley/wheat” (Frontiers in Microbiology, 2023).

Molecular target: T1, TtAbf62 (Thermothelomyces thermophilus, UniProt G2QJQ6)
T1 construct: gene MYCTH_55982; GH62; 321 residues with signal peptide MRPTRPGIVLLATATSVAG (1-19), replaced by alpha-factor signal (strain alpha-ABF); codon-optimized, secreted by Pichia pastoris X-33 (pPICZalphaA); N-glycosylated, 45-60 kDa (35 kDa deglycosylated); no purification described
T1 sequence (G2QJQ6 20-321): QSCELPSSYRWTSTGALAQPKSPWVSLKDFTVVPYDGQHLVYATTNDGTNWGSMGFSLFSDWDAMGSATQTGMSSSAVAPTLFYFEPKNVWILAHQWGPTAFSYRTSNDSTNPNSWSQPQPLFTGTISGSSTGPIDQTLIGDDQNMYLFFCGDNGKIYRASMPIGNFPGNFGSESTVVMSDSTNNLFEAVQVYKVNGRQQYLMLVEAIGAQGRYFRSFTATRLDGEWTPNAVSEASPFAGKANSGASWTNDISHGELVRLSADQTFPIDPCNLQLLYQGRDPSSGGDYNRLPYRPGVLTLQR
Experiment: HPLC of released arabinose
Type: biochemical
Details: 5 mg/mL substrate, 7.7 U/mL secreted enzyme, 50 mM sodium acetate pH 5.0, 60 °C, 1 h

SMILES	HPLC of released arabinose
OC[C@@H]1O[C@@H](O[C@H]2[C@H](O[C@@H]3CO[C@@H](O[C@@H]4COC(O)[C@H](O)[C@H]4O)[C@H](O)[C@H]3O)OC[C@@H](O)[C@@H]2O)[C@H](O)[C@H]1O (stereo partly drawn) [A^2XX, 2^3-α-L-arabinofuranosyl-xylotriose]	able to release arabinose from single-arabinofuranosyl arabinoxylo-oligosaccharides substrates (A^3X, A^2XX, and XA^3XX)
OC[C@@H]1O[C@@H](O[C@@H]2[C@@H](O)[C@H](O[C@@H]3COC(O)[C@H](O)[C@H]3O)OC[C@H]2O)[C@H](O)[C@H]1O (stereo partly drawn) [A^3X, 3^2-α-L-arabinofuranosyl-xylobiose]	able to release arabinose from single-arabinofuranosyl arabinoxylo-oligosaccharides substrates (A^3X, A^2XX, and XA^3XX)
